Laboratory results: PMC7955031, “Facile accelerated specific therapeutic (FAST) platform develops antisense therapies to counter multidrug-resistant bacteria” (Communications Biology, 2021)

How the values were obtained:
[1] = system: ESBL KPN; assay: Antibiotic resistance screening (MIC); assay type: cell-based, Klebsiella pneumoniae; details: for Antibiotic resistance characterization (R/S/I): 24 h
Description: (§1) The clinical isolates were obtained from the lab of Nancy Madinger at the University of Colorado Anschutz campus. Clinical isolates were grown in Cation Adjusted Mueller–Hinton broth (CAMHB) (Becton, Dickinson and Company 212322) at 37 °C with 225 rpm shaking or on solid CAMHB with 1.5% agar at 37 °C. Clinical isolates were maintained as freezer stocks in […], 40% glycerol at −80 °C. Freezer stocks were streaked out onto solid CAMHB and incubated for 16 h to produce single colonies prior to experiments. For each biological replicate, a single colony was picked from solid media and grown for 16 h in liquid CAMHB prior to experiments. Non-clinical isolates, such as E. coli MG1655 (ATCC700926) and Salmonella enterica serovar Typhimurium SL1344, expressing GFP from the chromosome (rpsm::gfp)[54], were cultured in liquid 2% lysogeny broth (LB) or on 2% LB with 1.5% agar for solid plates. SL1344 cultures were supplemented with 30 µg/mL streptomycin and SL1344 strains containing plasmids pFPV (target STm) or pRG1 modified with a lacIq promotor (SL1344-holin) were supplemented with 100 µg/mL ampicillin. Freezer stocks were stored in 60% LB broth, 40% glycerol at −80 °C. Freezer stocks were streaked out onto solid LB and incubated for 16 h to produce single colonies before experiments. For biological replicates, single colonies were started in liquid LB and grown for 16 h prior to experiments. E. coli MG1655 PNA growth experiments were carried out in M9 media (1x M9 minimal media salts solution (MP Biomedicals), 2.0 mM MgSO4, and 0.1 mM CaCl2 in sterile water) with 0.4% glucose.
Sensitive/resistant breakpoints were taken from the 2016–2017 Clinical & Laboratory Standards Institute report[41] (Table S1). Liquid cultures of the clinical strains were diluted to a 0.5 McFarland standard and added to the respective antibiotic test condition. […] Strains were “sensitive” if the MIC was equal to or below the sensitive-breakpoint concentration, “resistant” if the MIC was greater than or equal to the resistant-breakpoint concentration, and “intermediate” if the MIC was in-between.

[2] = system: CRE E. coli; assay type: cell-based, Escherichia coli; details: concentration range at which 90% of growth inhibition occurs at 24 hours, Table S2
Description: as §1, with “For biological replicates, single colonies were started in liquid LB and grown for 16 h prior to experiments. E. coli MG1655 PNA growth experiments were carried out in M9 media (1x M9 minimal media salts solution (MP Biomedicals), 2.0 mM MgSO4, and 0.1 mM CaCl2 in sterile water) with 0.4% glucose.” left out

[3] = system: MDR E. coli; assay type: cell-based, Escherichia coli; details: concentration range at which 90% of growth inhibition occurs at 24 hours, Table S2
Description: as §1, with “For biological replicates, single colonies were started in liquid LB and grown for 16 h prior to experiments. E. coli MG1655 PNA growth experiments were carried out in M9 media (1x M9 minimal media salts solution (MP Biomedicals), 2.0 mM MgSO4, and 0.1 mM CaCl2 in sterile water) with 0.4% glucose.” left out

[4] = system: NDM-1 KPN; assay type: cell-based, Klebsiella pneumoniae; details: concentration range at which 90% of growth inhibition occurs at 24 hours, Table S2
Description: as §1, with “For biological replicates, single colonies were started in liquid LB and grown for 16 h prior to experiments. E. coli MG1655 PNA growth experiments were carried out in M9 media (1x M9 minimal media salts solution (MP Biomedicals), 2.0 mM MgSO4, and 0.1 mM CaCl2 in sterile water) with 0.4% glucose.” left out

[5] = system: MDR STm; assay type: cell-based, Salmonella enterica serovar Typhimurium; details: concentration range at which 90% of growth inhibition occurs at 24 hours, Table S2
Description: as §1, with “For biological replicates, single colonies were started in liquid LB and grown for 16 h prior to experiments. E. coli MG1655 PNA growth experiments were carried out in M9 media (1x M9 minimal media salts solution (MP Biomedicals), 2.0 mM MgSO4, and 0.1 mM CaCl2 in sterile water) with 0.4% glucose.” left out

CC1(C)S[C@@H]2[C@H](NC(=O)[C@H](N)c3ccccc3)C(=O)N2[C@H]1C(=O)O [AMP, ampicillin]
Antibiotic resistance characterization (R/S/I) [1]: R

O=C(N[C@H](CO)[C@H](O)c1ccc([N+](=O)[O-])cc1)C(Cl)Cl [CHL, chloramphenicol]
Antibiotic resistance characterization (R/S/I) [1]: S

NC[C@H]1O[C@H](O[C@H]2[C@H](O)[C@@H](O[C@H]3O[C@H](CO)[C@@H](O)[C@H](N)[C@H]3O)[C@H](N)C[C@@H]2N)[C@H](O)[C@@H](O)[C@@H]1O [KAN, kanamycin]
Antibiotic MIC90 [2]: > 64 µg/mL | Antibiotic MIC90 [3]: < 16 µg/mL | Antibiotic MIC90 [4]: > 64 µg/mL | Antibiotic MIC90 ([1]; ESBL KPN, concentration range at which 90% of growth inhibition occurs at 24 hours, Table S2): > 64 µg/mL | Antibiotic MIC90 [5]: < 16 µg/mL

CCn1cc(C(=O)O)c(=O)c2ccc(C)nc21 [NXA, nalidixic acid]
Antibiotic resistance characterization (R/S/I) [1]: R
